Source: patent publication US20090005345A1, “Detoxification of Shellfish” (priority 2005, published 2009)

System: bivalves
Experiment: Feed test: detoxification of DSP-toxin containing bivalves by feeding in land-based vessels, DSP by HPLC
Assay type: in vivo
Conditions: Test 5; additive given separately in addition to bioprotein; 7.2° C.
Source text: Seawater from a depth of 45 metres in the Eidfjord, with a salinity of 33-34 per mille, was pumped up into a reservoir on land. The water was then passed into the test vessels. The bivalves were evenly distributed on the mesh/grating in a layer of about 10 cm in thickness. The vessel diameter is about 70 cm. In these small scale tests importance was given to ensuring that oxygen should not be a limiting factor. That is to say that there is sufficient flow-through of water to obtain approximate oxygen saturation in the outflow. The amount of water through each vessel was about 8 litres per minute.
Feeding was effected automatically batchwise throughout the day. That is to say that the daily consumption of the feed slurry according to Example 1 was filled into a tank once a day. The slurry runs from this tank to the bivalve vessel cascade via a valve. In our tests we chose to feed batchwise once an hour. Such portion feeding is important in order to obtain an even distribution to the whole bivalve population. The feed was added in the course of a few seconds. […]
In the case of all the tests, samples were taken immediately prior to the test start and after given time periods. […] The samples were analysed at the Norwegian College of Veterinary Medicine using HPLC (High Performance Liquid Chromatography).
The half-life for DSP was calculated using the following formula: […]

## O=C1O[C@H]([C@@H](O)CO)C(O)=C1O [Vitamin C]
  Effect on DSP half-life of additive used in addition to bioprotein: no effect
